Values joined by “and” are separate entries in the source; they are usually repeats but may differ in a detail not shown here. Equal values may be shown once.
Each compound was assayed against T1, human TG2 (Homo sapiens, UniProt P21980) (assay: fluorescent screening assay for human TG2). Conditions: 20 nM TG2, 8 μM N,N-dimethylated Casein, 16 μM KxD, pH 7.4, 37° C.
T1 sequence (P21980 1-687): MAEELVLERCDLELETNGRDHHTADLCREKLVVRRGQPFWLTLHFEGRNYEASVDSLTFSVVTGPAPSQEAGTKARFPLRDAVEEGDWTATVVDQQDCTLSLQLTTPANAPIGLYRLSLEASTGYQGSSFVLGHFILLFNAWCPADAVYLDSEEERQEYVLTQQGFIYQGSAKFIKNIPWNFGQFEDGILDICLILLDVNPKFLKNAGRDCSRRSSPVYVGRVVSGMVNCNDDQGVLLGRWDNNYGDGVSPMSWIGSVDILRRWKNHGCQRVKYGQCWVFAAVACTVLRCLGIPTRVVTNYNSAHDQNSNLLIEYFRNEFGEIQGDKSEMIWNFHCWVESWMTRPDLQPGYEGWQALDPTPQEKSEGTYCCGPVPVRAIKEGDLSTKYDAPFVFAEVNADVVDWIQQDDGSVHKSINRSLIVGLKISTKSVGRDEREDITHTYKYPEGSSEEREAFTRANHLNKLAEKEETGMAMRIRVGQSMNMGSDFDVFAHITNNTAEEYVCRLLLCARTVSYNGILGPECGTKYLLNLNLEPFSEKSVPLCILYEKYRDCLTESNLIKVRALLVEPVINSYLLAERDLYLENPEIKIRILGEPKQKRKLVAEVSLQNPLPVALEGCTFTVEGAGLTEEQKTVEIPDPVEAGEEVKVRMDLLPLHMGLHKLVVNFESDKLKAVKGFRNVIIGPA
Type: biochemical
Protocol: (§1) The fluorescent screening assay for human TG2 was performed as described herein: Assay conditions were 20 nM TG2, 8 μM N,N-dimethylated Casein (NMC) and 16 μM K×D (used for all transglutaminase assays) in 25 mM Hepes, pH 7.4, 250 mM NaCl, 2 mM MgCl2, 0.5 mM CaCl2, 0.2 mM DTT, 0.05% Pluronic F-127 at 37° C. A time point was taken with a microplate reader (Safire or Ultra, Tecan; ex: 350 nm, em: 535 nm) every 3 minutes for up to 2 hours and the initial linear reaction progress was used to determine the reaction velocity as a measure for enzyme activity. Assay conditions were identical for human TG6 and similar for human TG1 and mouse TG2 apart from enzyme concentration (mTG2 at 5 nM; TG1 at 10 nM) and CaCl2 concentration (0.2 mM for mTG2; 0.05 mM for TG1). Factor XIIIa was activated using 0.1 μg/μl thrombin (Sigma) in 35 mM Tris pH 8.0 for 20 min at 30° C. and the transamidation reaction was performed with 20 nM Factor XIIIa in 50 mM Tris pH 8.0, 1.25 mM CaCl2, 0.05% Pluronic, 0.2 mM DTT. TG3 was activated with 0.02 μg/μl thrombin under the same conditions as Factor XIIIa and assay conditions were 10 nM TG3 in 50 mM Hepes, pH 8, 20 mM CaCl2, 0.2 mM DTT, 0.05% Pluronic F-127.
as §1, with “A” for “The”
For C=CC(=O)Nc1ccc(S(=O)(=O)N2CCN(C(=O)Oc3ccccc3)CC2)cc1 [4-(4-Acryloylamino-benzenesulfonyl)-piperazine-1-carboxylic acid phenyl ester], the IC50 was 0.1 to 1 µM and < 0.1 µM.
In the case of CC#CC(=O)Nc1ccc(S(=O)(=O)N2CCN(C(=O)OC(C)(C)C)CC2)cc1 [4-[4-(1-Oxo-but-2-ynylamino)-benzenesulfonyl]-piperazine-1-carboxylic acid tert-butyl ester], the IC50 is reported as 1 to 25 µM.
With C=C(F)C(=O)Nc1ccc(S(=O)(=O)N2CCN(C(=O)OC(C)(C)C)CC2)cc1 [4-[4-(2-Fluoro-acryloylamino)-benzenesulfonyl]-piperazine-1-carboxylic acid tert-butyl ester] the IC50 was 1 to 25 µM.
C=CC(=O)N(C)c1ccc(S(=O)(=O)N2CCN(C(=O)OC(C)(C)C)CC2)cc1 [4-[4-(Acryloyl-methyl-amino)-benzenesulfonyl]-piperazine-1-carboxylic acid tert-butyl ester] was tested, and the IC50 was 1 to 25 µM.
In the case of CC(C)(C)OC(=O)N1CCN(S(=O)(=O)c2ccc(NC(=O)/C=C/Cl)cc2)CC1 [(E)-tert-butyl 4-(4-(3-chloroacrylamido)phenylsulfonyl)piperazine-1-carboxylate], the IC50 is reported as 1 to 25 µM.
With C/C=C/C(=O)Nc1ccc(S(=O)(=O)N2CCN(C(=O)OC(C)(C)C)CC2)cc1 [(E)-tert-butyl 4-(4-but-2-enamidophenylsulfonyl)piperazine-1-carboxylate] the IC50 was 1 to 25 µM.
Compound CC(C)(C)OC(=O)N1CCN(S(=O)(=O)c2ccc(NC(=O)/C=C\Cl)cc2)CC1 [(Z)-tert-butyl 4-(4-(3-chloroacrylamido)phenylsulfonyl)piperazine-1-carboxylate] has an IC50 of 0.1 to 1 µM.
C/C=C\C(=O)Nc1ccc(S(=O)(=O)N2CCN(C(=O)OC(C)(C)C)CC2)cc1 [(Z)-tert-butyl 4-(4-but-2-enamidophenylsulfonyl)piperazine-1-carboxylate] gave an IC50 of 1 to 25 µM.
In the case of C=CC(=O)Nc1ccc(S(=O)(=O)N2CCC(N(C)C(=O)C34CC5CC(CC(C5)C3)C4)CC2)cc1 [Adamantane-1-carboxylic acid [1-(4-acryloylamino-benzenesulfonyl)-piperidin-4-yl]-methyl-amide], the IC50 is reported as 0.1 to 1 µM and < 0.1 µM.
For C=CC(=O)Nc1ccc(S(=O)(=O)N2CCN(C(=O)Cc3cccc(Oc4ccccc4)c3)CC2)cc1 [N-(4-{4-[2-(3-Phenoxy-phenyl)-acetyl]-piperazine-1-sulfonyl}-phenyl)-acrylamide], the IC50 was 0.1 to 1 µM and < 0.1 µM.
C=CC(=O)Nc1ccc(S(=O)(=O)N2CCN(C(=O)Cc3ccc(Oc4ccccc4)cc3)CC2)cc1 [N-(4-{4-[2-(4-Phenoxy-phenyl)-acetyl]-piperazine-1-sulfonyl}-phenyl)-acrylamide] was tested, and the IC50 was 0.1 to 1 µM and < 0.1 µM.
Work on C=CC(=O)Nc1ccc(S(=O)(=O)N(C)Cc2ccc(CN3CCN(C)CC3)cc2)cc1 [N-(4-{Methyl-[4-(4-methyl-piperazin-1-ylmethyl)-benzyl]-sulfamoyl}-phenyl)-acrylamide] yielded an IC50 of 1 to 25 µM.
With C=CC(=O)Nc1cccc(S(=O)(=O)N2CCN(Cc3ccccc3)CC2)c1 [N-[3-(4-Benzyl-piperazine-1-sulfonyl)-phenyl]-acrylamide] the IC50 was 1 to 25 µM.
With C=CC(=O)Nc1cccc(S(=O)(=O)N2CCN(CCc3ccccc3)CC2)c1 [N-[3-(4-Phenethyl-piperazine-1-sulfonyl)-phenyl]-acrylamide] the IC50 was 1 to 25 µM.
C=CC(=O)Nc1cccc(S(=O)(=O)N2CCN(c3ccccc3)CC2)c1 [N-[3-(4-Phenyl-piperazine-1-sulfonyl)-phenyl]-acrylamide] showed an IC50 of 1 to 25 µM.
For C=CC(=O)Nc1cccc(S(=O)(=O)N2CCNCC2)c1 [N-[3-(piperazine-1-sulfonyl)-phenyl]-acrylamide], the IC50 was 1 to 25 µM.
Work on C=CC(=O)Nc1ccc(S(=O)(=O)N2CCNCC2)c(OC)c1 [N-[3-Methoxy-4-(piperazine-1-sulfonyl)-phenyl]-acrylamide] yielded an IC50 of 1 to 25 µM.
Compound C=CC(=O)Nc1ccc(S(=O)(=O)N2CCNCC2)c(C)c1 [N-[3-Methyl-4-(piperazine-1-sulfonyl)-phenyl]-acrylamide] has an IC50 of 1 to 25 µM.
In the case of C=CC(=O)Nc1ccc(S(=O)(=O)NC2CCCN(CC)C2)cc1 (stereo not shown) [N-[4-(1-Ethyl-piperidin-3-ylsulfamoyl)-phenyl]-acrylamide], the IC50 is reported as 1 to 25 µM.
With C=CC(=O)Nc1ccc(S(=O)(=O)NC(C)C(=O)N2CCCCC2)cc1 (stereo not shown) [N-[4-(1-Methyl-2-oxo-2-piperidin-1-yl-ethylsulfamoyl)-phenyl]-acrylamide] the IC50 was 1 to 25 µM.
C=CC(=O)Nc1ccc(S(=O)(=O)N2CCN(c3cnccn3)CC2)cc1 [N-[4-(2,3,5,6-Tetrahydro-[1,2′]bipyrazinyl-4-sulfonyl)-phenyl]-acrylamide] was tested, and the IC50 was < 0.1 µM and 0.1 to 1 µM.
C=CC(=O)Nc1ccc(S(=O)(=O)N2CCN(C34CC5CC(CC(C5)C3)C4)CC2)cc1 [N-[4-(4-Adamantan-1-yl-piperazine-1-sulfonyl)-phenyl]-acrylamide] gave an IC50 of 1 to 25 µM.
Compound C=CC(=O)Nc1ccc(S(=O)(=O)N2CCC(N)CC2)cc1 [N-[4-(4-Amino-piperidine-1-sulfonyl)-phenyl]-acrylamide] has an IC50 of 1 to 25 µM.
C=CC(=O)Nc1ccc(S(=O)(=O)N2CCN(c3nc4ccccc4o3)CC2)cc1 [N-[4-(4-Benzooxazol-2-yl-piperazine-1-sulfonyl)-phenyl]-acrylamide] was tested, and the IC50 was < 0.1 µM and 0.1 to 1 µM.
C=CC(=O)Nc1ccc(S(=O)(=O)N2CCN(c3nc4ccccc4s3)CC2)cc1 [N-[4-(4-Benzothiazol-2-yl-piperazine-1-sulfonyl)-phenyl]-acrylamide] was tested, and the IC50 was < 0.1 µM and 0.1 to 1 µM.
For C=CC(=O)Nc1ccc(S(=O)(=O)N2CCN(c3cccc(-c4ccccc4)c3)CC2)cc1 [N-[4-(4-Biphenyl-3-yl-piperazine-1-sulfonyl)-phenyl]-acrylamide], the IC50 was 1 to 25 µM.
C=CC(=O)Nc1ccc(S(=O)(=O)N2CCN(Cc3ccc(-c4ccccc4)cc3)CC2)cc1 [N-[4-(4-Biphenyl-4-ylmethyl-piperazine-1-sulfonyl)-phenyl]-acrylamide] showed an IC50 of 1 to 25 µM.
C=CC(=O)Nc1ccc(S(=O)(=O)N2CCN(C(=O)C3CCCC3)CC2)cc1 [N-[4-(4-Cyclopentanecarbonyl-piperazine-1-sulfonyl)-phenyl]-acrylamide] was tested, and the IC50 was 0.1 to 1 µM and < 0.1 µM.
For C=CC(=O)Nc1ccc(S(=O)(=O)N2CCN(C(=O)C3CC3)CC2)cc1 [N-[4-(4-Cyclopropanecarbonyl-piperazine-1-sulfonyl)-phenyl]-acrylamide], the IC50 was 0.1 to 1 µM and < 0.1 µM.
C=CC(=O)Nc1ccc(S(=O)(=O)N2CCC(c3ccco3)=Nc3ccccc32)cc1 [N-[4-(4-Furan-2-yl-2,3-dihydro-benzo[β][1,4]diazepine-1-sulfonyl)-phenyl]-acrylamide] was tested, and the IC50 was 1 to 25 µM.
For C=CC(=O)Nc1ccc(S(=O)(=O)N2CCN(c3nccc4occc34)CC2)cc1 [N-[4-(4-Furo[3,2-c]pyridin-4-yl-piperazine-1-sulfonyl)-phenyl]-acrylamide], the IC50 was < 0.1 µM and 0.1 to 1 µM.
In the case of C=CC(=O)Nc1ccc(S(=O)(=O)N2CCN(c3nccc4ccccc34)CC2)cc1 [N-[4-(4-Isoquinolin-1-yl-piperazine-1-sulfonyl)-phenyl]-acrylamide], the IC50 is reported as < 0.1 µM and 0.1 to 1 µM.
With C=CC(=O)Nc1ccc(S(=O)(=O)N2CCN(c3ccc4ccccc4c3)CC2)cc1 [N-[4-(4-Naphthalen-2-yl-piperazine-1-sulfonyl)-phenyl]-acrylamide] the IC50 was 1 to 25 µM.
With C=CC(=O)Nc1ccc(S(=O)(=O)N2CCN(c3ccccn3)CC2)cc1 [N-[4-(4-Pyridin-2-yl-piperazine-1-sulfonyl)-phenyl]-acrylamide] the IC50 was 0.1 to 1 µM and < 0.1 µM.

— US8946197B2, “Transglutaminase TG2 inhibitors, pharmaceutical compositions, and methods of use thereof” (CHDI Foundation, Inc., priority 2009, dated 2015)
